Patent US8901074B2, “Methods of treating autoimmune diseases of the central nervous system (CNS) and neurodegenerative diseases” (Ramot at Tel-Aviv University, priority 2010, dated 2014)
Where no end group is shown, it is not given here.

What was measured:
[1] = Toxicity monitoring (body weight, eating habits, tail tone, mobility) in APP mice; type: in vivo; details: 1.07 μg/mouse every other day for 4 months
Procedure: 8-week-old APP/PSI mice were used as previously described (Oakley et al 2006, J Neurosci 26: 10129-10140). Mice were treated with either ADT21 (1.07 μg/mouse) or PBS every other day for 4 months.
Contextual fear conditioning was tested as described previously (Carlos A. et al., 2005) Mice were placed within the conditioning chamber (Coulbourn Instruments, Allentown, Pa.) (7″W×7″D×12″H) for 3 min before the onset of the unconditioned stimulus (US; footshock; 1 s/1 mA) through the cage grid floor (Model H10-11M-TC-SF) from a Coulbourn Instruments shocker (Model H13-15). Activation was detected via a camera above the cage (ACT-VP-01) with a special algorithm for motion detection, to allow them to develop a representation of the context via exploration. After the shock, mice were left in the chamber for 2 min (immediate freezing) and returned to their home cages. 24 hours after the training session, the mice were again placed in the chamber and tested for 4 min without any footshocks. The chamber was isolated in a quiet environment using the noise sealed box (H10-24T Coulbourn Instruments). Freezing response was scored by using the FreezeFrame automated system (Coulbourn Instruments). Furthermore, mice were daily monitored for body weight, eating habits, tail tone and mobility.

[2] = target: T1, insulin degrading enzyme (IDE) (Homo sapiens, UniProt P14735); experiment: IDE enzymatic activity inhibition; type: biochemical
T1 sequence (P14735 1-1019): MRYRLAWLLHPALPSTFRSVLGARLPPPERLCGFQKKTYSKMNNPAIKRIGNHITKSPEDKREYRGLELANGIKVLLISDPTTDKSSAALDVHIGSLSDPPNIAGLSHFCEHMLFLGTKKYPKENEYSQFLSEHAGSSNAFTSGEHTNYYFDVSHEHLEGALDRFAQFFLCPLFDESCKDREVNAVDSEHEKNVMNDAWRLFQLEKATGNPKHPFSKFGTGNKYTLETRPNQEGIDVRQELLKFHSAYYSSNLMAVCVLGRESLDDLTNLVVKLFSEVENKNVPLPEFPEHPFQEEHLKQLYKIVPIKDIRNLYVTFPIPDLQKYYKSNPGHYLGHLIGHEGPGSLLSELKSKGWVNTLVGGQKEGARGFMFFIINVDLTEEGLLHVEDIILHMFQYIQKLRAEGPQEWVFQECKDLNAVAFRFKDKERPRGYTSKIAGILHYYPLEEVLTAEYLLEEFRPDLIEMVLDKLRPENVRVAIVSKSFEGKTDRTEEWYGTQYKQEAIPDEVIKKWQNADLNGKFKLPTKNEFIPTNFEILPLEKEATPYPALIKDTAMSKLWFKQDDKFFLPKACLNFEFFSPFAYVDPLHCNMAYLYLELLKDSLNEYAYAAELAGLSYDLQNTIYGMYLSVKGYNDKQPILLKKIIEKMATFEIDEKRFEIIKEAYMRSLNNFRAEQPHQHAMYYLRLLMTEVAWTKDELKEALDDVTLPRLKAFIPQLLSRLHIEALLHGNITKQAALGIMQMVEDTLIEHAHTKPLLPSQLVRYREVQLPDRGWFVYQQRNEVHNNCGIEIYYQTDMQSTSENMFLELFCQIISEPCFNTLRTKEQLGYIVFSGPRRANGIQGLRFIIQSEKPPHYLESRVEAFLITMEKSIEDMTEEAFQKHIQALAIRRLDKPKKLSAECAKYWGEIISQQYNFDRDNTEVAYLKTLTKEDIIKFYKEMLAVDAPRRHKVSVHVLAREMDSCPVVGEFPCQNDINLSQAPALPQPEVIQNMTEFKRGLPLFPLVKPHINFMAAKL
Procedure: The IDE inhibitor of the present teachings specifically down-regulates the enzymatic activity of IDE. For instance, the IC50 of IDE is in the range of 10-200 nM as assayed for ADT-21. According to exemplary embodiments, the IDE inhibitor of the present invention is capable of down-regulating by at least 5%, at least 10%, at least 15%, at least 20%, at least 30%, at least 40%, at least 50%, at least 60%, at least 70%, at least 80%, at least 90% or at least 100% the enzymatic activity of IDE.
Any method known in the art for measuring IDE activity may be used to assess down-regulation in IDE. For example, one method which may be used comprises the use of an Insulysin/IDE Immunocapture Activity Assay Kit (available e.g. from InnoZyme™, Calbiochem). Using this kit ELISA plates are first coated with the target enzyme (i.e. IDE) and then the plates are incubated with a substrate (e.g. insulin). The enzymatic activity is measured in comparison to wells without the substrate using for example a FRET substrate, Mca-GGFLRKHGQ-EDDnp (SEQ ID NO: 79). Cleavage of the scissile amide bond between R and K releases the fluorophore from the quenching molecule, Dnp, resulting in an increase in fluorescence. The increase in fluorescence is measured using an excitation wavelength of 320 nm and an emission wavelength of 405 nm.

## ITNPGSGGSSVLRYDDFHTD [ADT21]
[1]
  changes in behavior indicating toxicity (body weight, eating habits, tail tone, mobility): no changes in their behavior
[2]
  IC50: 10 to 200 nM
